In article PMC10287566, “Signaling-specific inhibition of the CB1 receptor for cannabis use disorder: phase 1 and phase 2a randomized trials” (Nature Medicine, 2023):
Values joined by “and” are separate entries in the source; they are usually repeats but may differ in a detail not shown here. Equal values may be shown once.

Assays:
Assay in all cases: Eurofins binding screen
Chemokines CXCR2 (IL-8B) = Chemokines CXCR2 (IL-8B) (Homo sapiens, UniProt P25025)
Neurokinin NK3 = Neurokinin NK3 (Homo sapiens, UniProt P29371)
[1] = target: Vasoactive intestinal peptide VPAC1 (VIP1) (Homo sapiens, UniProt P32241)
[2] = target: Calcitonin gene-related peptide CGRP (Homo sapiens, UniProt O60894+Q16602)
Serotonin 5-HT5a = Serotonin 5-HT5a (Homo sapiens, UniProt P47898)
Chemokines CCR1 = Chemokines CCR1 (Homo sapiens, UniProt P32246)
Somatostatin sst = details: 10 µM
Adenosine A1 = Adenosine A1 (Homo sapiens, UniProt P30542)
[3] = target: PR (progesterone receptor) (Homo sapiens, UniProt P06401)
Prostanoid IP (PGI2) = Prostanoid IP (PGI2) (Homo sapiens, UniProt P43119)
Cl- channel = details: 10 µM
Muscarinic M4 = Muscarinic M4 (Homo sapiens, UniProt P08173)
Muscarinic M5 = Muscarinic M5 (Homo sapiens, UniProt P08912)
Serotonin 5-HT1A = Serotonin 5-HT1A (Homo sapiens, UniProt P08908)
Neuropeptide Y Y2 = Neuropeptide Y Y2 (Homo sapiens, UniProt P49146)
Dopamine D1 = Dopamine D1 (Homo sapiens, UniProt P21728)
PXR = PXR (Homo sapiens, UniProt O75469)
Opioid delta2 (DOP) = Opioid delta2 (DOP) (Homo sapiens, UniProt P41143)
Dopamine D3 = Dopamine D3 (Homo sapiens, UniProt P35462)
Potassium channels SKCa = details: 10 µM
Kinase PDGF = details: 10 µM
Opioid kappa (KOP) = details: 10 µM
Serotonin 5-HT2C = Serotonin 5-HT2C (Homo sapiens, UniProt P28335)
Purinergic channels P2X = details: 10 µM
Glutamate PCP = details: 10 µM
Purinergic P2Y = details: 10 µM
Neurotensin NTS1 (NT1) = Neurotensin NTS1 (NT1) (Homo sapiens, UniProt P30989)
NOP (ORL1) = NOP (ORL1) (Homo sapiens, UniProt P41146)
[4] = target: Cholecystokinin CCK1 (CCKA) (Homo sapiens, UniProt P32238)
[5] = target: PBR (peripheral benzodiazepine receptor) (Rattus norvegicus, UniProt P16257); details: for Percent inhibition of control specific binding: 10 µM
Prostanoid EP4 = Prostanoid EP4 (Homo sapiens, UniProt P35408)
GABA = details: 10 µM
Adrenergic alpha2 = details: 10 µM
sigma = details: 10 µM
Adrenergic beta1 = Adrenergic beta1 (Homo sapiens, UniProt P08588)
Muscarinic M2 = Muscarinic M2 (Homo sapiens, UniProt P08172)
ER = details: 10 µM
Opioid mu (MOP) = Opioid mu (MOP) (Homo sapiens, UniProt P35372)
Adenosine A2A = Adenosine A2A (Homo sapiens, UniProt P29274)
Prostanoid EP2 = Prostanoid EP2 (Homo sapiens, UniProt P43116)
Neurokinin NK2 = Neurokinin NK2 (Homo sapiens, UniProt P21452)
Angiotensin-II AT2 = Angiotensin-II AT2 (Homo sapiens, UniProt P50052)
Galanin GAL1 = Galanin GAL1 (Homo sapiens, UniProt P47211)
Serotonin 5-HT2B = Serotonin 5-HT2B (Homo sapiens, UniProt P41595)
Neuropeptide Y Y1 = Neuropeptide Y Y1 (Homo sapiens, UniProt P25929)
[6] = read-out: Percent inhibition of control specific binding

Sequence of PBR (peripheral benzodiazepine receptor) (P16257 whole entry): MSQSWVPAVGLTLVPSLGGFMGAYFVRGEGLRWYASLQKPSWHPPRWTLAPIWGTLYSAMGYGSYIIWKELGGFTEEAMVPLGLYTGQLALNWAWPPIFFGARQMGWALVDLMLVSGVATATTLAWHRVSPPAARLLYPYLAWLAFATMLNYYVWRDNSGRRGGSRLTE
Sequence of PR (progesterone receptor) (P06401 whole entry): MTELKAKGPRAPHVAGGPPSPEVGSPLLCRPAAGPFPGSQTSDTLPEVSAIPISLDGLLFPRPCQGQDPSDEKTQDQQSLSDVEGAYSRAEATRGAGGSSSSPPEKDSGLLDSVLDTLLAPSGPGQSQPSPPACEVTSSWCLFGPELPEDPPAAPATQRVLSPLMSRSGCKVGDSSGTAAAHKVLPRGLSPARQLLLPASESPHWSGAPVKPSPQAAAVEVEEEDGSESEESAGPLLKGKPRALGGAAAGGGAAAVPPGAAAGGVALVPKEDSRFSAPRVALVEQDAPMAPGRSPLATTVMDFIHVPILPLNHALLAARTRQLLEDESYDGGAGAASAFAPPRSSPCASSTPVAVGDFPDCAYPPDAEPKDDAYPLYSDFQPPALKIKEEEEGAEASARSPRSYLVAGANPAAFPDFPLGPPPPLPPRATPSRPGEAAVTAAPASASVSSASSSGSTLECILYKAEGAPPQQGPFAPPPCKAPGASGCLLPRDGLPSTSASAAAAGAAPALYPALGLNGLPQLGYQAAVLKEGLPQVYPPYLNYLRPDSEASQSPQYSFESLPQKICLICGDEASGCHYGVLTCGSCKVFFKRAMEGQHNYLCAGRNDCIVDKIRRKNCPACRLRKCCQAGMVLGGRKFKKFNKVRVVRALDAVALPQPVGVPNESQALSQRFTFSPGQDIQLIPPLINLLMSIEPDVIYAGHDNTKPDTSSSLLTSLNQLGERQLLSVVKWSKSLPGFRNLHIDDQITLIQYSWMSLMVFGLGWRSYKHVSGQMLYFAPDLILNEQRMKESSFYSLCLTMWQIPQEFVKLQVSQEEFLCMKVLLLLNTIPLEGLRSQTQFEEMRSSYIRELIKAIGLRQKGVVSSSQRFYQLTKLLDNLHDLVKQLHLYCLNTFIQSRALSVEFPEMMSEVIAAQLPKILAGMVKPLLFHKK
Sequence of Vasoactive intestinal peptide VPAC1 (VIP1) (P32241 31-457): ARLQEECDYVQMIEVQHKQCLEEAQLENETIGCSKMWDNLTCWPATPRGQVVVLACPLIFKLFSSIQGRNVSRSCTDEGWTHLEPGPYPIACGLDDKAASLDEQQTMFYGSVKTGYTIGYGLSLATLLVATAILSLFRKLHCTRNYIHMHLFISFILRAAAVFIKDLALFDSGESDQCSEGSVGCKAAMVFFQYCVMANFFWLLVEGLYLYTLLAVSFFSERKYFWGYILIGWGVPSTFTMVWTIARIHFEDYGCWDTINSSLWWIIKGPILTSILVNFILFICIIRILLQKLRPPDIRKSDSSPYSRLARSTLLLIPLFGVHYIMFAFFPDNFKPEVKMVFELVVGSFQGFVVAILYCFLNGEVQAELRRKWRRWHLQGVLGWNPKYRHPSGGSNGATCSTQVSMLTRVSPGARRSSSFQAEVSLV
Sequence of PXR (O75469 whole entry): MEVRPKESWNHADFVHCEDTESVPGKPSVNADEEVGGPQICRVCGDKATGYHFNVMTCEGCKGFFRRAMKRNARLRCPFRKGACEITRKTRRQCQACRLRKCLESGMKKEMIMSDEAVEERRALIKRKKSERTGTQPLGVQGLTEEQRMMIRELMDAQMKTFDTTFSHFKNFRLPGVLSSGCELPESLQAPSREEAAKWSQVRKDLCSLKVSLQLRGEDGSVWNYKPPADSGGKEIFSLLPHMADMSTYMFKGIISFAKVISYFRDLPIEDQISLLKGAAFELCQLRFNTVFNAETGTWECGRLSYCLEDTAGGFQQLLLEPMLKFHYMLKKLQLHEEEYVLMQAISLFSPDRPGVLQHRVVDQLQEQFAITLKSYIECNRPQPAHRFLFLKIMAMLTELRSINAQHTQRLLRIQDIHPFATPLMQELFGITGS
Sequence of Muscarinic M5 (P08912 whole entry): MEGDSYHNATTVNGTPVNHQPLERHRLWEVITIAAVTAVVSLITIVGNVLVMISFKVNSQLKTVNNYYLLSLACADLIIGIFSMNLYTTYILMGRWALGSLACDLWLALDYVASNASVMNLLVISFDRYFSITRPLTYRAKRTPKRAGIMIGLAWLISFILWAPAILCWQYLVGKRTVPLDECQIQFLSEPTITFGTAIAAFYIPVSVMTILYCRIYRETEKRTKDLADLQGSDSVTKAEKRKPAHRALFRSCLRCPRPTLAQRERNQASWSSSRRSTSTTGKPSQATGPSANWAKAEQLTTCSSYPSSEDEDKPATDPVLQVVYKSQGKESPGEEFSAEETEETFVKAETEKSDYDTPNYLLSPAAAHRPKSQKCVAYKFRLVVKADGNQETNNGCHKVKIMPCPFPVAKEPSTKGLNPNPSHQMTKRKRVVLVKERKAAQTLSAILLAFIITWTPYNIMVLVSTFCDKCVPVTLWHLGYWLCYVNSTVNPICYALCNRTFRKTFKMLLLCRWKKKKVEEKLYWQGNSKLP
Sequence of Neuropeptide Y Y2 (P49146 whole entry): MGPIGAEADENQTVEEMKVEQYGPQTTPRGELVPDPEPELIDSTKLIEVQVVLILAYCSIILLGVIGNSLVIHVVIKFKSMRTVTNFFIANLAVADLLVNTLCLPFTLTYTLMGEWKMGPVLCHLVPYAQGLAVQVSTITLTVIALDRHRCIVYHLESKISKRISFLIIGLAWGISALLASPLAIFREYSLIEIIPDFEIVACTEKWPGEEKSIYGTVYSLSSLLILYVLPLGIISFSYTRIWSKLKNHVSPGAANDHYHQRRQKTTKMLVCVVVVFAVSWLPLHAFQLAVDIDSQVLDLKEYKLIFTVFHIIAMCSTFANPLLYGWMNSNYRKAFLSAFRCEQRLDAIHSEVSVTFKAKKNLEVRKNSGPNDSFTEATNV
Sequence of Neurokinin NK3 (P29371 whole entry): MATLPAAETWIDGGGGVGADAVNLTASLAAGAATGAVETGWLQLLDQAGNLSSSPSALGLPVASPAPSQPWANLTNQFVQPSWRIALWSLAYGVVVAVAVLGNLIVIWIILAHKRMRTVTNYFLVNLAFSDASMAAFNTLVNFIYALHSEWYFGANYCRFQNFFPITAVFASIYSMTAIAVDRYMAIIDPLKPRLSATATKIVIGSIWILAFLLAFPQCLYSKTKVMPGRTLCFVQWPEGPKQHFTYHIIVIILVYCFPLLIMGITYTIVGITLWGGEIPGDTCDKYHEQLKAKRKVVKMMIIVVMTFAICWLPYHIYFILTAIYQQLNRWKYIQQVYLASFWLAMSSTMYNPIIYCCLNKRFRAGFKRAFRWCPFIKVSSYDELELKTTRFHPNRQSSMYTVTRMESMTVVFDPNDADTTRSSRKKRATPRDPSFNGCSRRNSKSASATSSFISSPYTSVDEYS
Sequence of Muscarinic M2 (P08172 whole entry): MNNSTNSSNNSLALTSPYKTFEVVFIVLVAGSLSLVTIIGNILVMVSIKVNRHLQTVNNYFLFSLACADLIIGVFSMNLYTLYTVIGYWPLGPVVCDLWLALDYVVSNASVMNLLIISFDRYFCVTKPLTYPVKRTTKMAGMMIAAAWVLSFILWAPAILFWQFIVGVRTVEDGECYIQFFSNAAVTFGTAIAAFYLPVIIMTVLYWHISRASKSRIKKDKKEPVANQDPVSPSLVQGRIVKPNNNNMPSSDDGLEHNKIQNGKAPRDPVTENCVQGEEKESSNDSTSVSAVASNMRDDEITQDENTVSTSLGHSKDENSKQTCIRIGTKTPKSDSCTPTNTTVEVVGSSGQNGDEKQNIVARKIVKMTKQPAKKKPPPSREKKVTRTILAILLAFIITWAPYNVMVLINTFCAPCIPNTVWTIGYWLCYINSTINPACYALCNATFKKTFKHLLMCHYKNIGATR
Sequence of Galanin GAL1 (P47211 whole entry): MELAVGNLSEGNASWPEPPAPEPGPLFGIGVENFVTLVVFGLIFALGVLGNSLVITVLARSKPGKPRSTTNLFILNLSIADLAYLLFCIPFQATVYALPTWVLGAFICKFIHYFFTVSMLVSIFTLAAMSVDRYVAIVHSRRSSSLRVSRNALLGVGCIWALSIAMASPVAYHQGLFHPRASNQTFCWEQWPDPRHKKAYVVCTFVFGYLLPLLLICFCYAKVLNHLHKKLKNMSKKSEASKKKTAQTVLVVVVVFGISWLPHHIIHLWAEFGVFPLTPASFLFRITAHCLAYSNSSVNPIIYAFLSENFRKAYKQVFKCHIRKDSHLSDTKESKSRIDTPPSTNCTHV
Sequence of Adrenergic beta1 (P08588 whole entry): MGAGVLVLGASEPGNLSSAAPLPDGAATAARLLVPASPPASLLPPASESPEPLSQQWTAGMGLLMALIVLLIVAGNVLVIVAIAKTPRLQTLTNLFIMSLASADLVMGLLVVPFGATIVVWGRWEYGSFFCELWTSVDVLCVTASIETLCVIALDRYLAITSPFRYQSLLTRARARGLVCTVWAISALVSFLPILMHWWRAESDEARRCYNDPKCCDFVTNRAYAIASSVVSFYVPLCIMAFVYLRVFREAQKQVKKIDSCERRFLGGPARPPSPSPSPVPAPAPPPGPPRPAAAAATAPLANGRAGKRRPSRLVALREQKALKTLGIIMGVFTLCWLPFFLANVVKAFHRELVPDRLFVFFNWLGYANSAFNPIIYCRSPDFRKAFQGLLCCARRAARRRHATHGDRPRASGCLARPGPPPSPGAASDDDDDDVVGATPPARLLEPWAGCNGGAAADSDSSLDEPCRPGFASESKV
Sequence of Adenosine A1 (P30542 whole entry): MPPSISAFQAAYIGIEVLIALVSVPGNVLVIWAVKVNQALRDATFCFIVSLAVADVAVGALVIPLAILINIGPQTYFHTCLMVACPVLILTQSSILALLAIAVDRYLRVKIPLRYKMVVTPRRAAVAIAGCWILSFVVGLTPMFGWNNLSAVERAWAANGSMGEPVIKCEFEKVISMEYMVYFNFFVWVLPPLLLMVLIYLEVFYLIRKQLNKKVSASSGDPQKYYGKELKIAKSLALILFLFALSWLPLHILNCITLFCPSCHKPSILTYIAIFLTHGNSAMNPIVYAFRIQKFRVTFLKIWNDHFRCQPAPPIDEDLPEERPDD

COc1ccc(CO[C@H]2CC[C@@]3(C)C(=CC[C@H]4[C@@H]5CC[C@H](C(C)=O)[C@@]5(C)CC[C@@H]43)C2)cc1 [AEF0117, 3β-(4-methoxybenzyloxy)pregn-5-en-20-one]
inhibition at 10 µM (Chemokines CXCR2 (IL-8B); [6]): -1% | inhibition at 10 µM (Neurokinin NK3; [6]): -1% | inhibition at 10 µM [1, 6]: -4% | inhibition at 10 µM [2, 6]: -21% | inhibition at 10 µM (Serotonin 5-HT5a; [6]): 1% | inhibition at 10 µM (Chemokines CCR1; [6]): 5% | Percent inhibition of control specific binding (Somatostatin sst): -4% | inhibition at 10 µM (Adenosine A1; [6]): 14% | inhibition at 10 µM [3, 6]: 29% | inhibition at 10 µM (Prostanoid IP (PGI2); [6]): -4% | Percent inhibition of control specific binding (Cl- channel): -4% | inhibition at 10 µM (Muscarinic M4; [6]): 0% | inhibition at 10 µM (Muscarinic M5; [6]): -5% | inhibition at 10 µM (Serotonin 5-HT1A; [6]): -11% | inhibition at 10 µM (Neuropeptide Y Y2; [6]): -22% | inhibition at 10 µM (Dopamine D1; [6]): -12% | inhibition at 10 µM (PXR; [6]): 7% | inhibition at 10 µM (Opioid delta2 (DOP); [6]): -4% | inhibition at 10 µM (Dopamine D3; [6]): 2% | Percent inhibition of control specific binding (Potassium channels SKCa): 12% | Percent inhibition of control specific binding (Kinase PDGF): -8% | Percent inhibition of control specific binding (Opioid kappa (KOP)): 1% | inhibition at 10 µM (Serotonin 5-HT2C; [6]): 4% | Percent inhibition of control specific binding (Purinergic channels P2X): -29% | Percent inhibition of control specific binding (Glutamate PCP): 2% | Percent inhibition of control specific binding (Purinergic P2Y): 16% | inhibition at 10 µM (Neurotensin NTS1 (NT1); [6]): -14% | inhibition at 10 µM (NOP (ORL1); [6]): -7% | inhibition at 10 µM [4, 6]: -19% | inhibition at 10 µM [5, 6]: 4% | inhibition at 10 µM (Prostanoid EP4; [6]): 10% | Percent inhibition of control specific binding (GABA): 9% | Percent inhibition of control specific binding (Adrenergic alpha2): 7% | Percent inhibition of control specific binding (sigma): -4% | inhibition at 10 µM (Adrenergic beta1; [6]): 3% | inhibition at 10 µM (Muscarinic M2; [6]): -3% | Percent inhibition of control specific binding (ER): 31% | inhibition at 10 µM (Opioid mu (MOP); [6]): -10% | inhibition at 10 µM (Adenosine A2A; [6]): -3% | inhibition at 10 µM (Prostanoid EP2; [6]): 27% | inhibition at 10 µM (Neurokinin NK2; [6]): -28% | inhibition at 10 µM (Angiotensin-II AT2; [6]): -8% | inhibition at 10 µM (Galanin GAL1; [6]): -4% | inhibition at 10 µM (Serotonin 5-HT2B; [6]): -15% | inhibition at 10 µM (Neuropeptide Y Y1; [6]): -9%

CC(=O)[C@H]1CC[C@H]2[C@@H]3CC=C4C[C@@H](O)CC[C@]4(C)[C@H]3CC[C@]12C [pregnenolone, reference compound]
Percent inhibition of control specific binding (Chemokines CXCR2 (IL-8B); 10 µM): -10% | Percent inhibition of control specific binding (Neurokinin NK3; 10 µM): 11% | Percent inhibition of control specific binding ([1]; 10 µM): -10% | Percent inhibition of control specific binding ([2]; 10 µM): -12% | Percent inhibition of control specific binding (Serotonin 5-HT5a; 10 µM): 11% | Percent inhibition of control specific binding (Chemokines CCR1; 10 µM): -10% | Percent inhibition of control specific binding (Somatostatin sst): -8% | Percent inhibition of control specific binding (Adenosine A1; 10 µM): -25% | Percent inhibition of control specific binding ([3]; 10 µM): > 80% and 87% | Percent inhibition of control specific binding (Prostanoid IP (PGI2); 10 µM): -12% | Percent inhibition of control specific binding (Cl- channel): 29% | Percent inhibition of control specific binding (Muscarinic M4; 10 µM): -4% | Percent inhibition of control specific binding (Muscarinic M5; 10 µM): 8% | Percent inhibition of control specific binding (Serotonin 5-HT1A; 10 µM): 12% | Percent inhibition of control specific binding (Neuropeptide Y Y2; 10 µM): -9% | Percent inhibition of control specific binding (Dopamine D1; 10 µM): -8% | Percent inhibition of control specific binding (PXR; 10 µM): 15% | Percent inhibition of control specific binding (Opioid delta2 (DOP); 10 µM): 9% | Percent inhibition of control specific binding (Dopamine D3; 10 µM): 11% | Percent inhibition of control specific binding (Potassium channels SKCa): -8% | Percent inhibition of control specific binding (Kinase PDGF): -15% | Percent inhibition of control specific binding (Opioid kappa (KOP)): 38% | Percent inhibition of control specific binding (Serotonin 5-HT2C; 10 µM): -9% | Percent inhibition of control specific binding (Purinergic channels P2X): 13% | Percent inhibition of control specific binding (Glutamate PCP): 5% | Percent inhibition of control specific binding (Purinergic P2Y): -3% | Percent inhibition of control specific binding (Neurotensin NTS1 (NT1); 10 µM): -19% | Percent inhibition of control specific binding (NOP (ORL1); 10 µM): 2% | Percent inhibition of control specific binding ([4]; 10 µM): -30% | Percent inhibition of control specific binding [5]: > 40% | Percent inhibition of control specific binding ([5]; listed as Preg): 42% | Percent inhibition of control specific binding (Prostanoid EP4; 10 µM): 21% | Percent inhibition of control specific binding (GABA): 10% | Percent inhibition of control specific binding (Adrenergic alpha2): -2% | Percent inhibition of control specific binding (sigma): 26% | Percent inhibition of control specific binding (Adrenergic beta1; 10 µM): 4% | Percent inhibition of control specific binding (Muscarinic M2; 10 µM): -4% | Percent inhibition of control specific binding (ER): 26% | Percent inhibition of control specific binding (Opioid mu (MOP); 10 µM): -5% | Percent inhibition of control specific binding (Adenosine A2A; 10 µM): -1% | Percent inhibition of control specific binding (Prostanoid EP2; 10 µM): 24% | Percent inhibition of control specific binding (Neurokinin NK2; 10 µM): -1% | Percent inhibition of control specific binding (Angiotensin-II AT2; 10 µM): -18% | Percent inhibition of control specific binding (Galanin GAL1; 10 µM): -16% | Percent inhibition of control specific binding (Serotonin 5-HT2B; 10 µM): -38% | Percent inhibition of control specific binding (Neuropeptide Y Y1; 10 µM): -11%
